# Laboratory results from patent publication US20170360671A1, “METHOD FOR PREPARING 3,6-ANHYDRO-L-GALACTOSE, AND USE THEREOF” (Korea University Research and Business Foundation, priority 2012, published 2017).
# Test system: mushroom-derived tyrosinase
# Assay: In vitro (cell-free) tyrosinase activity assay with L-tyrosine as substrate
# Assay type: biochemical
# Conditions: 200 μM
# Protocol: The in vitro tyrosinase analyses were performed using a slight modification of the reported method (Ishihara Y et al., The journal of antibiotics (Tokyo) 1991; 44:25-32; An S M, Koh J S, Boo Y C, Phytotherapy Research 2010; 24:1175-1180). In brief, 250 μl of a 0.1M potassium phosphate buffer (pH 6.8) was put into a 24-well plate, and 25 μl of a mushroom-derived tyrosinase (2,000 units/mL), 25 μl of a sample, and 225 μl of distilled water were put into each well. The plate was incubated at 25° C. for 10 minutes, and 25 μl of 1 mM L-tyrosine used as a substrate was added to the wells. Then, the plate was incubated at 25° C. for 10 minutes, and the optical density of each well measured at 475 nm using a microplate reader (Sunrise-Basic Tecan, Austria). Each of the measured values was represented by a variation (%) with respect to the control. L-tyrosine was used as the substrate, and arbutin was used as the positive control. The results were represented by the relative tyrosinase activities to the non-treated control. Next, effects of L-AHG on the tyrosinase activities were examined using a cell-free assay system. Many reports disclosed that the mushroom-derived tyrosinase was primarily used as a model since it was able to be used in the form of a tablet. […] The results were represented by the relative tyrosinase activities to the non-treated control. […]
smiles,measurement,value
OC[C@H]1O[C@@H](Oc2ccc(O)cc2)[C@H](O)[C@@H](O)[C@@H]1O [arbutin],tyrosinase activities relative to the non-treated control,40%
